In patent publication US8901138B2, “Sulfoximine substituted quinazolines for pharmaceutical compositions” (Boehringer Ingelheim International GmbH, priority 2012, dated 2014):

Legend:
MNK2a = target: T1, MNK2a (Homo sapiens, UniProt Q9HBH9); assay: MNK2a in vitro kinase assay (assay 1), ADP-Glo; format: biochemical; conditions: preactivated GST-MNK2a, 20 μM ATP, read-out: MNK2 IC50
T1 construct: made in house
Method in brief: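 Preactivated GST-MNK2a (10 nM) with eIF4E peptide (25 μM) and ATP (20 μM) in HEPES/DTT/MgCl2 buffer, 90 min at room temperature, final DMSO <3%. ADP formed read by ADP-Glo luminescence and normalised to vehicle and 20 μM reference-inhibitor controls; IC50 from dose-response curves.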

MNK1a = MNK1a (Homo sapiens, UniProt Q9BUB5); assay: MNK1 in vitro kinase assay (assay 2), Z'-LYTE; format: biochemical; conditions: for inhibition at 1 µM: compound concentration of 1 μM; for IC50: pre-activated GST-MNK1a
Chain of MNK1a (Q9BUB5 1-424 isoform Q9BUB5-2): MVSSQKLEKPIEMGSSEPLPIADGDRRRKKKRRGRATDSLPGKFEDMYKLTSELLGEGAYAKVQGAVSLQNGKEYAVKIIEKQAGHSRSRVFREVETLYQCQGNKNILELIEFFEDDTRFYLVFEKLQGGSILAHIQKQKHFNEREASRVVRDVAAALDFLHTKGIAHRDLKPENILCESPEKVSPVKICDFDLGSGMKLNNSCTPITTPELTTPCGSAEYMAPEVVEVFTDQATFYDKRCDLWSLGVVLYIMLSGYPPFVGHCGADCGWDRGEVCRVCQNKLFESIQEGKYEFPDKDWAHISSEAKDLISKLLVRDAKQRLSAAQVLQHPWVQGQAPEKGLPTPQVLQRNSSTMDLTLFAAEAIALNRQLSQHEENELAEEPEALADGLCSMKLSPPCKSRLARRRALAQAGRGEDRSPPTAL
Method in brief: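 Pre-activated GST-MNK1a (13.5-54 ng) with 2 μM Ser/Thr 07 FRET peptide in 50 mM HEPES pH 7.5, 10 mM MgCl2, 2 mM MnCl2, 1 mM EGTA, 1 mM DTT, 1% DMSO; 1 h kinase then 1 h development at room temperature. Coumarin/fluorescein emission ratio gives % phosphorylation; sigmoidal dose-response fit.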

T1 sequence (Q9HBH9 whole entry): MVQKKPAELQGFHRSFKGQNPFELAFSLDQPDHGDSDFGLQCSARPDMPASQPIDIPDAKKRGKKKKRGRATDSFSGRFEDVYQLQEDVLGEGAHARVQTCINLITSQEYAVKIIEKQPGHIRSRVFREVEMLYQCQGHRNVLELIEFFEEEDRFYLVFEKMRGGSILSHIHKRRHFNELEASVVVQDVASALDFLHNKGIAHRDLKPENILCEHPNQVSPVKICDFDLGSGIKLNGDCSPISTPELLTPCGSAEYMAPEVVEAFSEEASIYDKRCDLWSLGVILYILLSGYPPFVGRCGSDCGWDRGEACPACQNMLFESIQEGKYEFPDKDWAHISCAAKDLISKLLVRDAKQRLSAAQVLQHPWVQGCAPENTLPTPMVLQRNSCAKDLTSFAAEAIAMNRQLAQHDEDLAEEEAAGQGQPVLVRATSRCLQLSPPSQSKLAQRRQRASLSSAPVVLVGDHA

Row | IC50 (MNK2a) [nM] | inhibition at 1 µM (MNK1a) [%] | IC50 (MNK1a) [nM] | SMILES
1 | 1 | 98 | – | Cc1cc(N=S2(=O)CCC(O)CC2)cc2ncnc(Nc3ccc(F)cc3O[C@@H]3CO[C@@H]4CCO[C@@H]43)c12 (stereo partly drawn) [Example 2.94]
2 | 4 | – | 33 | Cc1cc(N=S(C)(=O)c2cccnc2)cc2ncnc(Nc3ccc(F)cc3O[C@@H]3CO[C@@H]4CCO[C@@H]43)c12 (stereo partly drawn) [Example 2.95]
3 | 2 | 93 | – | Cc1cc(N=S2(=O)CCC(O)CC2)cc2ncnc(Nc3ccc(F)cc3O[C@H]3CCOC3)c12 (stereo partly drawn) [Example 2.97]
4 | 1 | 95 | – | Cc1cc(N=S2(=O)CCC2)cc2ncnc(Nc3ccc(F)cc3O[C@H]3CCOC3)c12 [Example 2.98]
5 | 5 | 96 | – | Cc1cc(N=S(C)(=O)C2CCOCC2)cc2ncnc(Nc3ccc(F)cc3O[C@@H]3CO[C@@H]4CCO[C@@H]43)c12 (stereo partly drawn) [Example 2.99]
6 | 6 | 89 | – | Cc1cc(N=S(C)(=O)c2ccncc2)cc2ncnc(Nc3ccc(F)cc3O[C@H]3CCOC3)c12 (stereo partly drawn) [Example 2.100]
7 | 5 | 93 | – | Cc1cc(N=S(C)(=O)C2CCOCC2)cc2ncnc(Nc3ccc(F)cc3O[C@H]3CCOC3)c12 (stereo partly drawn) [Example 2.101]
8 | 5 | – | 131 | Cc1cc(N=S(C)(=O)c2cccnc2)cc2ncnc(Nc3ccc(F)cc3O[C@H]3CCOC3)c12 (stereo partly drawn) [Example 2.102]
9 | 7 | – | 82 | Cc1cc(N=S(C)(=O)C2CC2)cc2ncnc(Nc3ccc(F)cc3O[C@H]3CCOC3)c12 (stereo partly drawn) [Example 2.103]
10 | 4 | 95 | – | Cc1cc(N=S(C)(=O)C(C)C)cc2ncnc(Nc3ccc(F)cc3O[C@H]3CCOC3)c12 (stereo partly drawn) [Example 2.104]
11 | 1 | 98 | – | Cc1cc(N=S2(=O)CCC2)cc2ncnc(Nc3ccc(F)cc3O[C@@H]3CO[C@@H]4CCO[C@@H]43)c12 [Example 2.106]
12 | 10 | – | 102 | Cc1cc(N=S(C)(=O)CCN2CCCC2)cc2ncnc(Nc3ccc(F)cc3O[C@H]3CC[C@H](O)CC3)c12 (stereo partly drawn) [Example 2.107]
13 | 3 | 99 | – | Cc1cc(N=S(C)(=O)C(C)(C)C)cc2ncnc(Nc3ccc(F)cc3O[C@@H]3CO[C@@H]4CCO[C@@H]43)c12 (stereo partly drawn) [Example 2.108]
14 | 2 | 100 | – | Cc1cc(N=S(C)(=O)C(C)C)cc2ncnc(Nc3ccc(F)cc3O[C@@H]3CO[C@@H]4CCO[C@@H]43)c12 (stereo partly drawn) [Example 2.109]
15 | 2 | 100 | – | Cc1cc(N=S2(=O)CCC2)cc2ncnc(Nc3ccc(F)cc3O[C@H]3CC[C@H](O)CC3)c12 [Example 2.110]
16 | 5 | 89 | – | Cc1cc(N=S(C)(=O)C(C)(C)C#N)cc2ncnc(Nc3ccc(F)cc3O[C@H]3CCOC3)c12 (stereo partly drawn) [Example 2.111]
17 | 6 | 89 | – | Cc1cc(N=S(C)(=O)C(C)(C)C)cc2ncnc(Nc3ccc(F)cc3O[C@H]3CCOC3)c12 (stereo partly drawn) [Example 2.112]
18 | 5 | 90 | – | Cc1cc(N=S(C)(=O)CCN(C)C)cc2ncnc(Nc3ccc(F)cc3O[C@H]3CC[C@H](O)CC3)c12 (stereo partly drawn) [Example 2.113]
19 | 2 | 96 | – | Cc1cc(N=S(C)(=O)C2CC2)cc2ncnc(Nc3ccc(F)cc3O[C@@H]3CO[C@@H]4CCO[C@@H]43)c12 (stereo partly drawn) [Example 2.114]
20 | 2 | 100 | – | Cc1cc(N=S(C)(C)=O)cc2ncnc(Nc3ccc(F)cc3O[C@@H]3CO[C@H]4[C@@H]3OC[C@@H]4F)c12 [Example 2.116]
21 | 1 | 101 | – | Cc1cc(N=S2(=O)CCCC2)cc2ncnc(Nc3ccc(F)cc3O[C@@H]3CO[C@H]4[C@@H]3OC[C@@H]4F)c12 [Example 2.117]
22 | 2 | 103 | – | Cc1cc(N=S(C)(C)=O)cc2ncnc(Nc3ccc(F)cc3OC3COCOC3)c12 [Example 2.120]
23 | 4 | 89 | – | Cc1cc(N=S(C)(C)=O)cc2ncnc(Nc3ccc(F)cc3O[C@@H]3CO[C@@H]4CCO[C@@H]43)c12 [Example 2.121]
24 | 2 | 98 | – | Cc1cc(N=S(C)(C)=O)cc2ncnc(Nc3ccc(F)cc3O[C@@H]3CO[C@@H]4CCC[C@@H]43)c12 [Example 2.122]
25 | 1 | 100 | – | Cc1cc(N=S2(=O)CCCC2)cc2ncnc(Nc3ccc(F)cc3O[C@@H]3CO[C@@H]4CCC[C@@H]43)c12 [Example 2.123]
26 | 4 | 83 | – | Cc1cc(N=S(C)(C)=O)cc2ncnc(Nc3ccc(F)cc3O[C@@H]3CC[C@@H]4OCC[C@@H]43)c12 [Example 2.124]
27 | 2 | 94 | – | Cc1cc(N=S2(=O)CCCC2)cc2ncnc(Nc3ccc(F)cc3O[C@@H]3CC[C@@H]4OCC[C@@H]43)c12 [Example 2.125]

Row | IC50 (MNK2a) [nM] | inhibition at 1 µM (MNK1a) [%] | IC50 (MNK1a) [nM] | SMILES
28 | 10 | 93 | – | Cc1cc(N=S(C)(C)=O)cc2ncnc(Nc3ccc(F)cc3OC3COC3)c12 [Example 2.126]
29 | 111 | 50 | – | CS(C)(=O)=Nc1cc(F)c2c(Nc3cccnc3O[C@@H]3CCCNC3)ncnc2c1 [Example 3.1]
30 | 4 | 101 | – | Cc1cc(N=S(C)(C)=O)cc2ncnc(Nc3cccnc3O[C@H]3CC[C@H](N)CC3)c12 [Example 3.2]
31 | 5 | 95 | – | Cc1cc(N=S2(=O)CCNCC2)cc2ncnc(Nc3ccc(F)cc3O[C@@H]3CO[C@H]4[C@@H]3OC[C@H]4O)c12 [Example 3.3]
32 | 5 | 101 | – | CS(C)(=O)=Nc1cc(F)c2c(Nc3cccnc3O[C@H]3CC[C@H](N)CC3)ncnc2c1 [Example 3.5]
33 | 69 | 80 | – | Cc1cc(N=S(C)(C)=O)cc2ncnc(Nc3cccnc3O[C@@H]3CCCNC3)c12 [Example 3.6]
34 | 36 | 81 | – | CS(C)(=O)=Nc1cc(F)c2c(Nc3ccc(F)cc3O[C@@H]3CCNC3)ncnc2c1 [Example 3.7]
35 | 22 | 79 | – | CS(C)(=O)=Nc1cc(F)c2c(Nc3ccc(F)cc3O[C@@H]3CCCNC3)ncnc2c1 [Example 3.8]
36 | 10 | 89 | – | Cc1cc(N=S(C)(C)=O)cc2ncnc(Nc3ccc(F)cc3O[C@@H]3CCCNC3)c12 [Example 3.9]
37 | 8 | 88 | – | CO[C@H]1CC[C@H](Oc2cc(F)ccc2Nc2ncnc3cc(N=S4(=O)CCNCC4)cc(C)c23)CC1 [Example 3.10]
38 | 32 | 78 | – | Cc1cc(N=S(C)(C)=O)cc2ncnc(Nc3ccc(F)cc3O[C@@H]3CCNC3)c12 [Example 3.11]
39 | 3 | 95 | – | Cc1cc(N=S2(=O)CCCC2)cc2ncnc(Nc3ccc(F)cc3O[C@@H]3CCCNC3)c12 [Example 3.12]
40 | 4 | 92 | – | Cc1cc(N=S(C)(C)=O)cc2ncnc(Nc3ccc(F)cc3O[C@H]3CC[C@H](C#N)CC3)c12 [Example 4.4]
41 | 2 | 101 | – | CCOc1cc(N=S(C)(C)=O)cc2ncnc(Nc3ccc(F)cc3O[C@H]3CCOC3)c12 [Example 5.1]
42 | 6 | 90 | – | COc1cc(N=S(C)(C)=O)cc2ncnc(Nc3ccc(F)cc3O[C@H]3CC[C@H](OC)CC3)c12 [Example 5.3]
43 | 15 | 78 | – | CCOc1cc(N=S(C)(C)=O)cc2ncnc(Nc3ccc(F)cc3O[C@H]3CC[C@H](OC)CC3)c12 [Example 5.4]
44 | 2 | – | 14 | CCOc1cc(N=S(C)(C)=O)cc2ncnc(Nc3ccc(F)cc3O[C@@H]3CO[C@H]4[C@@H]3OC[C@H]4OC)c12 [Example 5.5]
45 | 2 | – | 25 | CO[C@@H]1CO[C@H]2[C@@H]1OC[C@H]2Oc1cc(F)ccc1Nc1ncnc2cc(N=S(C)(C)=O)cc(OCCF)c12 [Example 5.6]
46 | 2 | – | 43 | CO[C@@H]1CO[C@H]2[C@@H]1OC[C@H]2Oc1cc(F)ccc1Nc1ncnc2cc(N=S(C)(C)=O)cc(OCC(F)F)c12 [Example 5.7]
47 | 8 | 85 | – | CS(C)(=O)=Nc1cc(F)c2c(Nc3ccc(F)cc3O[C@@H]3CCCN(CCO)C3)ncnc2c1 [Example 6.1]
48 | 2 | 92 | – | Cc1cc(N=S(C)(C)=O)cc2ncnc(Nc3ccc(F)cc3O[C@@H]3CCCN(CC(F)(F)F)C3)c12 [Example 6.6]
49 | 2 | 100 | – | Cc1cc(N=S2(=O)CCCC2)cc2ncnc(Nc3ccc(F)cc3O[C@@H]3CCCN(CCO)C3)c12 [Example 6.7]
50 | 5 | 95 | – | Cc1cc(N=S(C)(C)=O)cc2ncnc(Nc3ccc(F)cc3O[C@@H]3CCCN(CCO)C3)c12 [Example 6.9]
51 | 8 | 89 | – | Cc1cc(N=S(C)(C)=O)cc2ncnc(Nc3cccnc3O[C@@H]3CCCN(CCO)C3)c12 [Example 6.10]
52 | 31 | 72 | – | CS(C)(=O)=Nc1cc(F)c2c(Nc3cccnc3O[C@@H]3CCCN(CCO)C3)ncnc2c1 [Example 6.11]
53 | 12 | 91 | – | CS(C)(=O)=Nc1cc(F)c2c(Nc3ccc(F)cc3O[C@@H]3CCCN(Cc4ncon4)C3)ncnc2c1 [Example 6.12]
54 | 4 | 80 | – | CS(C)(=O)=Nc1cc(F)c2c(Nc3ccc(F)cc3O[C@@H]3CCCN(CC(F)(F)F)C3)ncnc2c1 [Example 6.13]
